Results: publication PMC8154177 (Circulation, 2021)
Like-named read-outs stand apart in the source and are kept apart here.

Experiments:
mouse cardiomyocytes = test: Calcium transients (Fluo-4) in paced single mouse cardiac myocytes, veratridine-induced spontaneous events; assay type: cell-based
Description: Cardiomyocytes were isolated from 3- to 6-month-old male C57Bl6N mice as described above and then loaded with 1 µmol/L Fluo-4 AM for 30 to 60 minutes at room temperature before imaging with an Olympus IX83 inverted microscope. The cells were perfused with a gravity controlled, multi-channel superfusion system at a flow rate of 1.5 mL/min. Fluorescence was recorded at 20 Hz through a UPLSAPO 20X objective and an Andor iXon Ultra 897 camera after excitation at 480 nm for 9.85 ms at 5% intensity of the X-cite 120 LED Boost Excelitas light source. Cardiomyocytes were field-stimulated at 1 Hz at a current value 10% above the threshold current required to elicit contraction using a current stimulator (Warner Instruments, SIU-102) equipped with platinum electrodes submerged in the recording bath. Cardiomyocytes were selected on the basis of their typical rod-shaped morphology, the absence of unpaced calcium events, and their consistent response to field stimulation. […] Regions of interest were selected such that the cardiomyocyte resided within the boundaries of the regions of interest in both its contracted and its relaxed state. The average fluorescence intensity for the regions of interest in every frame was then analyzed. Fifty-second segments of the fluorescence intensity trace in control and treated conditions from the same cardiomyocyte were obtained. Typically, these segments were the last 50 s during the >120 s superfusion of the chosen treatment condition.

human Nav1.5 (WT) [1] = biological target: T1, human Nav1.5 (WT) (Homo sapiens, UniProt Q14524); settings: for Effect on peak-INa: over a range of concentrations
human Nav1.5 (WT) [2] = biological target: T1, human Nav1.5 (WT); test: cell-based
[3] = system: cardiac sodium current (peak, total, late-INa) in TAC cardiomyocytes; test: Whole-cell patch-clamp of sodium currents in cardiomyocytes from TAC (heart failure) mice; assay type: cell-based, mouse; settings: 10 µmol/L
Description: (§1) Male C57BL/6 N mice (7 weeks of age) were obtained from Charles River Canada (St. Foy, Quebec) and housed in a temperature and humidity-controlled animal facility with a 12:12-hour light-dark cycle for a minimum of 1 week before investigation. Animals were maintained on Rodent Chow #5001 and water ad libitum. Eight-week-old mice weighing 20 to 25 g were anesthetized with a cocktail of ketamine (100 mg/kg) and xylazine (20 mg/kg) intraperitoneal and preoperative analgesia (meloxicam, 1–2 mg/kg subcutaneous). Once animals reached a surgical plane, endotracheal intubation was performed using 22-G tubing. The endotracheal tube was then connected to a ventilator (Hugo-Sachs Electronik Mini-Vent, Harvard Apparatus Canada) and ventilated at 200 to 250 µl stroke volume and 150 breaths/min. Animals were then prepared for surgery (Liquid Tears applied to eyes; chest and throat shaved and washed and topical antiseptic utilized, then draped). A vertical skin incision was made from the suprasternal notch to midsternum, and then straight blunt scissors were used to cut the sternum to the third or fourth rib. Mini-Goldstein (FST) spreaders were used to retract the ribs. The thymus was blunt-dissected and the aortic arch visualized. The transverse arch was carefully dissected free of connective tissue, and a 6/0 silk tie was passed around the arch between the innominate and left carotid arteries. A double-blunted 27-G (0.4-mm) needle was then placed alongside the arch and the tie ligated. The blunted needle was then removed to standardize the stenosis. The thymus was gently replaced, and retractors removed. Two sutures were placed in the sternum, and the skin incision was closed using 6/0 Vicryl suture continuous pattern. Sham-operated animals underwent the same procedure without banding. Animals were removed from the ventilator and left to recover in a prewarmed cage with no bedding until the “righting reflex” was achieved, and checked initially every 5 to 10 minutes for the first 60 minutes, then regularly at 20 to 30 minutes intervals for the next 2 to 3 hours. […]

human Nav1.5 ΔKPQ = biological target: T2, human Nav1.5 ΔKPQ (Homo sapiens, UniProt Q14524, DEL1505-1507); test: Whole-cell patch-clamp of recombinant Nav1.5 LQT3 ΔKPQ mutant; assay type: cell-based; settings: 10 µmol/L
T2 construct: host or cells: HEK293T
Description: (§2) The human Nav1.5 gene (SCN5A) in the pcDNA3.1(+)/C-(K)DYK vector (GenScript, Cat No. OHu18270D, USA) was cotransfected with a GFP vector into HEK293T cells using Lipofectamine 3000 (Invitrogen, Cat No. L3000001, USA). Transfected cells were seated on coverslips and used for functional studies within 48 to 72 hours. […] PCR products were cloned into XL-10 Gold Ultracompetent cells (Agilent, Cat No. 200315, USA), and DNA was isolated and purified by GeneElute Plasmid Miniprep kits (Sigma, Cat No. PLN350, USA). The presence of the desired mutations and the integrity of plasmids were then verified by DNA sequencing (The Applied Genomics Core, University of Alberta). The R1623Q LQT3 mutation in human Nav1.5 was constructed as described previously.[42]
(§3) Pipettes were pulled from borosilicate glass (World Precision Instruments, Sarasota, FL) using a P-87 micropipette puller (Sutter Instruments, Novato, CA), and the tips were fire-polished, yielding resistances of 3 to 4 MΩ. The pipette solution contained (in mmol/L) 130 CsCl, 5 NaCl, 5 TEA (tetra-ethyl ammonium chloride)-Cl, 2.5 HEPES, 1 EGTA, and 2 MgATP. The pH was adjusted to 7.2 with CsOH. The extracellular solution contained (in mmol/L) 140 NaCl, 10 HEPES, 1 CaCl2, 1.4 MgCl2, 5 KCl, and 5 glucose (pH adjusted to 7.4 with NaOH).

isolated mouse hearts = test: Postischemic functional recovery (LVDP) of isolated Langendorff-perfused mouse hearts
human NCX1.1 = biological target: T3, human NCX1.1 (Homo sapiens, UniProt P32418); test: Whole-cell patch-clamp of reverse-mode NCX1.1 current in HEK293T cells; assay type: cell-based; settings: 1 µmol/L
T3 construct: expressed in transfected cells; host or cells: HEK293T
Description: as §3

human Nav1.5 R1623Q = biological target: T4, human Nav1.5 R1623Q (Homo sapiens, UniProt Q14524, R1623Q); test: Whole-cell patch-clamp of recombinant Nav1.5 LQT3 R1623Q mutant; assay type: cell-based; settings: 10 µmol/L
T4 construct: expressed in transfected cells; host or cells: HEK293T
Description: as §2, §3

[4] = system: cardiac sodium current (peak, total, late-INa) in sham cardiomyocytes; test: Whole-cell patch-clamp of sodium currents in cardiomyocytes from sham-operated mice; assay type: cell-based, mouse; settings: 10 µmol/L
Description: as §1

NLRP3 inflammasome = test: Immunoblot of NLRP3 and TXNIP in isolated mouse hearts after ischemia-reperfusion (Langendorff)
[5] = 1 µmol/L, 30 min ischemia, 40 min reperfusion

Which “Effect on incidence of veratridine-induced spontaneous transients” value (mouse cardiomyocytes; 10 µmol/L, 20 nmol/L veratridine) does the source give for `COc1ccccc1OCC(O)CN1CCN(CC(=O)Nc2c(C)cccc2C)CC1` (centres unmarked) [ranolazine] here?
Its value is “significantly reduced”.

What does the source list for `CCOc1ccc(Cc2cc([C@@H]3O[C@H](CO)[C@@H](O)[C@H](O)[C@H]3O)ccc2Cl)cc1` [dapagliflozin]?
Effect on peak-INa (human Nav1.5 (WT) [1]): little inhibitory effect; IC50 (human Nav1.5 (WT) [2]): 580 nM

Which “Effect on late-INa” value [3] does the source give for `OC[C@H]1O[C@@H](c2ccc(Cl)c(Cc3ccc(O[C@H]4CCOC4)cc3)c2)[C@H](O)[C@@H](O)[C@@H]1O` [empagliflozin] here?
The value was “significantly reduced”.

And the “Effect on peak current” value [3]?
Its value is “did not affect”.

And the “Effect on total current (area under the curve)” value [3]?
The value was “significantly reduced”.

And the “Effect on peak current of ΔKPQ” value (human Nav1.5 ΔKPQ; data not shown)?
The value was “did not inhibit”.

And the “Steady-state late-INa after drug” value (human Nav1.5 ΔKPQ; ≈2% before drug)?
The value was “≈ 1 % of peak current amplitude”.

And the “Reperfusion functional recovery (LVDP)” value (isolated mouse hearts; [5])?
Its value is “improved”.

What about the “Inhibition of reverse-mode NCX1.1” value (human NCX1.1) of the same compound?
Its value is “no significant inhibition”.

What about the “Frequency dependence of peak- and late-INa inhibition” value (human Nav1.5 (WT) [1]; 1 µmol/L, stimulation frequencies 0.2–3 Hz) of the same compound?
The value was “no significant differences”.

And the “Effect on H2O2-induced late-INa in WT channels” value (human Nav1.5 (WT) [1]; 10 µmol/L)?
Its value is “significantly inhibited”.

What about the “Effect on H2O2-induced late-INa” value (human Nav1.5 (WT) [1]; 1 and 10 µmol/L) of the same compound?
The value was “significantly inhibited”.

And the “Half-activation voltage (V50) after drug” value (human Nav1.5 (WT) [1]; WT currents, 10 µmol/L)?
The value was “–42.4 mV”.

What about the “Effect on peak-INa” value (human Nav1.5 (WT) [1]) of the same compound?
The value was “little effect”.

What about the “Reduction of the occurrence of veratridine-induced spontaneous transients” value (mouse cardiomyocytes; 1 µmol/L, 20 nmol/L veratridine, 1 Hz field stimulation) of the same compound?
The value was 46%.

And the “Effect on calcium transients in vehicle control-treated cardiomyocytes” value (mouse cardiomyocytes; no veratridine, data not shown)?
Its value is “no observable effect”.

What about the IC50 (human Nav1.5 (WT) [2]) of the same compound?
Its IC50 is 790 nM.

And the “Effect on late component of R1623Q current” value (human Nav1.5 R1623Q)?
The value was “significantly reduced”.

And the “Effect on peak component of R1623Q current” value (human Nav1.5 R1623Q)?
Its value is “significantly reduced”.

What about the “Activation V50 after drug” value (human Nav1.5 R1623Q; R1623Q currents) of the same compound?
The value was “–43.3 mV”.

And the “Inactivation V50 after drug” value (human Nav1.5 R1623Q; R1623Q currents)?
The value was “–97.5 mV”.

And the “Effect on late-INa” value [4]?
Its value is “did not significantly alter”.

What about the “Effect on peak current” value [4] of the same compound?
Its value is “did not significantly alter”.

What about the “Effect on total sodium current” value [4] of the same compound?
The value was “did not significantly alter”.

What about the “Activation of TXNIP after ischemia-reperfusion” value (NLRP3 inflammasome; [5]) of the same compound?
The value was “complete prevention”.

What about the “Activation of the NLRP3 inflammasome after ischemia-reperfusion” value (NLRP3 inflammasome; [5]) of the same compound?
Its value is “complete prevention”.

canagliflozin was tested. Which “Effect on peak-INa” value (human Nav1.5 (WT) [1]) did it give?
The value was “little inhibitory effect”.

What about the IC50 (human Nav1.5 (WT) [1]; read-out: IC50 for inhibition of H2O2-induced late-INa, recombinant human Nav1.5 in HEK293T cells, late-INa induced by 30 µmol/L H2O2) of the same compound?
Its IC50 is 1260 nM.

With `COc1ccc(C(=O)O[C@H]2CC[C@@]3(C)[C@@H]4CC[C@H]5[C@]6(O)C[C@H](O)[C@@]7(O)[C@@H](CN8C[C@@H](C)CC[C@H]8[C@@]7(C)O)[C@]6(O)C[C@@]53O[C@]24O)cc1OC` [veratridine] as the compound, how does the “Induction of late-INa activity and spontaneous calcium transients” value (mouse cardiomyocytes; 20 nmol/L, pilot experiments) read?
The value was “induces late-INa activity”.

With `CCN(CC)CC(=O)Nc1c(C)cccc1C` [lidocaine] as the compound, how does the “Effect on incidence of veratridine-induced spontaneous transients” value (mouse cardiomyocytes) read?
Its value is “significantly reduced”.

What does the source list for `NC1=N[C@H](O)[C@H]2[C@H]3O[C@]4(O)O[C@@H]([C@@H](O)[C@@]2(N1)[C@@H]4O)[C@]3(O)CO` [tetrodotoxin]?
Reperfusion functional recovery (LVDP) (isolated mouse hearts): improved; Sensitivity of H2O2-induced persistent inward current (late-INa) (human Nav1.5 (WT) [1]): sensitive; Activation of TXNIP after ischemia-reperfusion (NLRP3 inflammasome): complete prevention; Activation of the NLRP3 inflammasome after ischemia-reperfusion (NLRP3 inflammasome): complete prevention
